From patent US20220323406A1, “METHODS AND COMPOSITIONS FOR DIFFERENTIATING STEM CELLS” (Massachusetts Institute of Technology, priority 2019, published 2022)

Columns and labels:
[1] = system: ENR+CD organoids (ISC to Paneth cell differentiation); assay: Primary screen: basal (non-stimulated) lysozyme secretion LYZ.NS, 2.5-D 384-well ENR+CD organoid differentiation; assay type: cell-based, mouse
Text: (§1) High-throughput screening.

[2] = system: ENR+CD organoids (ISC to Paneth cell differentiation); assay: Primary screen: CCh-stimulated lysozyme secretion LYZ.S, 2.5-D 384-well ENR+CD organoid differentiation; assay type: cell-based, mouse; settings: primary screen
Text: as §1

[3] = system: ENR+CD organoids; assay: Primary screen: ATP (CellTiter-Glo 3D, CTG) cell number/viability, 2.5-D 384-well ENR+CD organoids;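 also: compounds given at plating and again on day 3 over a 6-day differentiation from ENR+CV stem-cell-enriched precursors, ATP measured on day 6, plate median as control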
[4] = primary screen, standard z score, dose 0.08 uM
[5] = primary screen, standard z score, dose 0.40 uM
[6] = primary screen, standard z score, dose 2.00 uM
[7] = primary screen, standard z score, dose 10.00 uM
[8] = primary screen, dose 0.08 uM, FC relative to plate median
[9] = primary screen, dose 0.08 uM, standard z score
[10] = primary screen, dose 0.40 uM, FC relative to plate median
[11] = primary screen, dose 0.40 uM, standard z score
[12] = primary screen, dose 2.00 uM, FC relative to plate median
[13] = primary screen, dose 2.00 uM, standard z score
[14] = primary screen, dose 10.00 uM, FC relative to plate median
[15] = primary screen, dose 10.00 uM, standard z score

SMILES	Dose.FC.LYZ.NS ([1]; primary screen, dose 0.08 uM)	Z.LYZ.NS (standard z score) ([1]; primary screen, dose 0.08 uM)	Dose.FC.LYZ.NS ([1]; primary screen, dose 0.40 uM)	Z.LYZ.NS (standard z score) ([1]; primary screen, dose 0.40 uM)	Dose.FC.LYZ.NS ([1]; primary screen, dose 2.00 uM)	Z.LYZ.NS (standard z score) ([1]; primary screen, dose 2.00 uM)	Dose.FC.LYZ.NS ([1]; primary screen, dose 10.00 uM)	Z.LYZ.NS (standard z score) ([1]; primary screen, dose 10.00 uM)	Dose.FC.LYZ.S ([2]; dose 0.08 uM)	Dose.FC.LYZ.S ([2]; dose 0.40 uM)	Dose.FC.LYZ.S ([2]; dose 2.00 uM)	Dose.FC.LYZ.S ([2]; dose 10.00 uM)	Dose.FC.CTG ([3]; primary screen, dose 0.08 uM)	Z.CTG (standard z score) ([3]; primary screen, dose 0.08 uM)	Dose.FC.CTG ([3]; primary screen, dose 0.40 uM)	Z.CTG (standard z score) ([3]; primary screen, dose 0.40 uM)	Dose.FC.CTG ([3]; primary screen, dose 2.00 uM)	Z.CTG (standard z score) ([3]; primary screen, dose 2.00 uM)	Dose.FC.CTG ([3]; primary screen, dose 10.00 uM)	Z.CTG (standard z score) ([3]; primary screen, dose 10.00 uM)	further results
COc1ccc2cc(-c3nc(-c4ccc([S+](C)[O-])cc4)[nH]c3-c3ccncc3)ccc2c1 (stereo not shown) [Tie2 kinase inhibitor]	0.009 log2 fold change	0.080	0.002 log2 fold change	0.019	0.181 log2 fold change	1.577	−0.031 log2 fold change	−0.274	0.018 log2 fold change	−0.021 log2 fold change	0.024 log2 fold change	−0.097 log2 fold change	0.005 log2 fold change	0.012	0.074 log2 fold change	0.177	−0.314 log2 fold change	−0.750	−0.549 log2 fold change	−1.311	
Cl.Cl.Cl.O[C@@H](COc1cccc2ncccc12)CN1CCN([C@@H]2c3ccccc3[C@@H]3[C@H](c4ccccc42)C3(F)F)CC1 [Zosuquidar (LY335979) 3HCl]	0.096 log2 fold change	0.839	0.080 log2 fold change	0.696	0.207 log2 fold change	1.802	−0.209 log2 fold change	−1.821	0.124 log2 fold change	0.127 log2 fold change	0.129 log2 fold change	−0.200 log2 fold change	0.017 log2 fold change	0.041	0.197 log2 fold change	0.470	0.276 log2 fold change	0.659	−0.193 log2 fold change	−0.461	
COc1ccc([C@]2(C#N)CC[C@@H](C(=O)O)CC2)cc1OC1CCCC1 [Cilomilast]	0.114 log2 fold change		−0.037 log2 fold change		−0.010 log2 fold change		−0.043 log2 fold change		0.115 log2 fold change	−0.109 log2 fold change	−0.083 log2 fold change	−0.045 log2 fold change	−0.334 log2 fold change		−0.338 log2 fold change		−0.235 log2 fold change		−0.192 log2 fold change		Z.LYZ.NS [1, 4]: 0.995; Z.LYZ.NS [1, 5]: −0.321; Z.LYZ.NS [1, 6]: −0.083; Z.LYZ.NS [1, 7]: −0.376
Oc1ccc(Nc2nc(-c3ccc(Cl)cc3)cs2)cc1 [SKI II]																					Dose.FC.LYZ.NS [1, 8]: 0.078 log2 fold change; Z.LYZ.NS [1, 9]: 0.683; Dose.FC.LYZ.NS [1, 10]: 0.219 log2 fold change; Z.LYZ.NS [1, 11]: 1.906; Dose.FC.LYZ.NS [1, 12]: 0.074 log2 fold change; Z.LYZ.NS [1, 13]: 0.647; Dose.FC.LYZ.NS [1, 14]: −0.156 log2 fold change; Z.LYZ.NS [1, 15]: −1.362; Dose.FC.LYZ.S ([2]; dose 0.08 uM, FC relative to plate median): 0.090 log2 fold change; Dose.FC.LYZ.S ([2]; dose 0.40 uM, FC relative to plate median): 0.123 log2 fold change; Dose.FC.LYZ.S ([2]; dose 2.00 uM, FC relative to plate median): 0.061 log2 fold change; Dose.FC.LYZ.S ([2]; dose 10.00 uM, FC relative to plate median): −0.191 log2 fold change; Dose.FC.CTG [3, 8]: 0.293 log2 fold change; Z.CTG [3, 9]: 0.699; Dose.FC.CTG [3, 10]: 0.222 log2 fold change; Z.CTG [3, 11]: 0.531; Dose.FC.CTG [3, 12]: 0.198 log2 fold change; Z.CTG [3, 13]: 0.473; Dose.FC.CTG [3, 14]: −0.336 log2 fold change; Z.CTG [3, 15]: −0.802
O=C(Nc1cccc(C(F)(F)F)c1)Nc1cc(S(=O)(=O)NC2CC2)ccc1-c1ccsc1 [AGI-6780]	0.069 log2 fold change	0.597	0.031 log2 fold change	0.268	0.043 log2 fold change	0.374	−0.090 log2 fold change	−0.785	0.095 log2 fold change	0.156 log2 fold change	0.055 log2 fold change	−0.054 log2 fold change	0.281 log2 fold change	0.671	0.231 log2 fold change	0.551	0.298 log2 fold change	0.713	0.107 log2 fold change	0.256	
CCOC(=O)c1ccc(NC2CCCCC2)c(N)c1 [Ferrostatin-1 (Fer-1)]	0.108 log2 fold change		0.116 log2 fold change		0.070 log2 fold change		0.013 log2 fold change		0.120 log2 fold change	0.207 log2 fold change	0.092 log2 fold change	−0.018 log2 fold change	0.312 log2 fold change		0.453 log2 fold change		0.215 log2 fold change		−0.046 log2 fold change		Z.LYZ.NS [1, 4]: 0.944; Z.LYZ.NS [1, 5]: 1.012; Z.LYZ.NS [1, 6]: 0.610; Z.LYZ.NS [1, 7]: 0.116; Z.CTG [3, 4]: 0.745; Z.CTG [3, 5]: 1.082; Z.CTG [3, 6]: 0.514; Z.CTG [3, 7]: −0.109
CN(C)Cc1ccc(-c2nc3cccc4c3n2CCNC4=O)cc1 [AG-14361]	0.152 log2 fold change	1.324	0.036 log2 fold change	0.312	0.032 log2 fold change	0.278	−0.197 log2 fold change	−1.713	0.100 log2 fold change	−0.001 log2 fold change	−0.065 log2 fold change	−0.189 log2 fold change	−0.012 log2 fold change	−0.028	−0.069 log2 fold change	−0.165	0.005 log2 fold change	0.012	−0.021 log2 fold change	−0.050	
CC[C@H](C)C(=O)O[C@H]1C[C@@H](C)C=C2C=C[C@H](C)[C@H](CC[C@@H]3C[C@@H](O)CC(=O)O3)[C@H]21 [Lovastatin]		0.017		−0.492		−2.430		−2.362													Dose.FC.LYZ.NS (log2 fold change) ([1]; primary screen, dose 0.08 uM): 0.002; Dose.FC.LYZ.NS (log2 fold change) ([1]; primary screen, dose 0.40 uM): −0.057; Dose.FC.LYZ.NS (log2 fold change) ([1]; primary screen, dose 2.00 uM): −0.279; Dose.FC.LYZ.NS (log2 fold change) ([1]; primary screen, dose 10.00 uM): −0.271; Dose.FC.LYZ.S (log2 fold change) ([2]; dose 0.08 uM): −0.023; Dose.FC.LYZ.S (log2 fold change) ([2]; dose 0.40 uM): −0.049; Dose.FC.LYZ.S (log2 fold change) ([2]; dose 2.00 uM): −0.398; Dose.FC.LYZ.S (log2 fold change) ([2]; dose 10.00 uM): −0.409; Dose.FC.CTG (log2 fold change) ([3]; primary screen, dose 0.08 uM): −0.322; Dose.FC.CTG (log2 fold change) ([3]; primary screen, dose 0.40 uM): −0.492; Dose.FC.CTG (log2 fold change) ([3]; primary screen, dose 2.00 uM): −1.174; Dose.FC.CTG (log2 fold change) ([3]; primary screen, dose 10.00 uM): −1.391
CCC(COC(=O)c1cc(OC)c(OC)c(OC)c1)(c1ccccc1)N(C)C (stereo not shown) [Trimebutine]	−0.014 log2 fold change	−0.121	−0.019 log2 fold change	−0.166	−0.202 log2 fold change	−1.763	−0.214 log2 fold change	−1.863	0.000 log2 fold change	0.002 log2 fold change	−0.277 log2 fold change	−0.332 log2 fold change	0.007 log2 fold change		−0.202 log2 fold change		−1.008 log2 fold change		−1.066 log2 fold change		
CC(C)OC(=O)C1=CN(C(=O)c2ccc(F)c(F)c2)CC(C)(C)c2c1[nH]c1ccccc21 [XL335]	0.175 log2 fold change	1.523	−0.082 log2 fold change	−0.711	−0.072 log2 fold change	−0.625	−0.135 log2 fold change	−1.176	0.093 log2 fold change	−0.109 log2 fold change	0.045 log2 fold change	−0.180 log2 fold change	0.124 log2 fold change		−0.258 log2 fold change		−0.259 log2 fold change		−0.156 log2 fold change		
